Data reported in PubChem BioAssay (NCI).
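48-hour exposure; five concentrations; linearly interpolated endpoints. GI50 is the concentration that inhibits growth by half. Definition used: TGI = concentration required for complete inhibition of growth.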

Legend:
Assay in all cases: NCI tumour cell line growth inhibition, 48 h
786-0 renal = tested on: 786-0 renal
A498 renal = tested on: A498 renal
A549 NSCLC = tested on: A549 NSCLC
ACHN renal = tested on: ACHN renal
CAKI-1 renal = tested on: CAKI-1 renal
CCRF-CEM leukemia = tested on: CCRF-CEM leukemia
COLO 205 colon = tested on: COLO 205 colon
DU-145 prostate = tested on: DU-145 prostate
EKVX NSCLC = tested on: EKVX NSCLC
HCC-2998 colon = tested on: HCC-2998 colon
HCT-116 colon = tested on: HCT-116 colon
HCT-15 colon = tested on: HCT-15 colon
HL-60(TB) leukemia = tested on: HL-60(TB) leukemia
HOP-62 NSCLC = tested on: HOP-62 NSCLC
HOP-92 NSCLC = tested on: HOP-92 NSCLC
HS 578T breast = tested on: HS 578T breast
HT29 colon = tested on: HT29 colon
IGROV1 ovarian = tested on: IGROV1 ovarian
K-562 leukemia = tested on: K-562 leukemia
KM12 colon = tested on: KM12 colon
LOX IMVI melanoma = tested on: LOX IMVI melanoma
M14 melanoma = tested on: M14 melanoma
MALME-3M melanoma = tested on: MALME-3M melanoma
MCF7 breast = tested on: MCF7 breast
MDA-MB-231 breast = tested on: MDA-MB-231 breast
MDA-MB-435 = tested on: MDA-MB-435
MOLT-4 leukemia = tested on: MOLT-4 leukemia
NCI-H226 lung = tested on: NCI-H226 lung
NCI-H23 lung = tested on: NCI-H23 lung
NCI-H460 lung = tested on: NCI-H460 lung
NCI-H522 lung = tested on: NCI-H522 lung
NCI/ADR-RES ovarian = tested on: NCI/ADR-RES ovarian
OVCAR-3 ovarian = tested on: OVCAR-3 ovarian
OVCAR-4 ovarian = tested on: OVCAR-4 ovarian
OVCAR-5 ovarian = tested on: OVCAR-5 ovarian
OVCAR-8 ovarian = tested on: OVCAR-8 ovarian
PC-3 prostate = tested on: PC-3 prostate
RPMI-8226 leukemia = tested on: RPMI-8226 leukemia
RXF 393 renal = tested on: RXF 393 renal
SF-268 CNS = tested on: SF-268 CNS
SF-295 CNS = tested on: SF-295 CNS
SF-539 CNS = tested on: SF-539 CNS
SK-MEL-28 melanoma = tested on: SK-MEL-28 melanoma
SK-MEL-5 melanoma = tested on: SK-MEL-5 melanoma
SK-OV-3 ovarian = tested on: SK-OV-3 ovarian
SN12C renal = tested on: SN12C renal
SNB-19 CNS = tested on: SNB-19 CNS
SNB-75 CNS = tested on: SNB-75 CNS
SR leukemia = tested on: SR leukemia
SW-620 colon = tested on: SW-620 colon
T-47D breast = tested on: T-47D breast
TK-10 renal = tested on: TK-10 renal
U251 CNS = tested on: U251 CNS
UACC-257 melanoma = tested on: UACC-257 melanoma
UACC-62 melanoma = tested on: UACC-62 melanoma
UO-31 renal = tested on: UO-31 renal

Nc1cc(N)c(N)cc1N
GI50 (786-0 renal): 2.27 µM | TGI (786-0 renal): 4.99 µM | GI50 (A498 renal): 1.6 µM | TGI (A498 renal): 4.67 µM | GI50 (A549 NSCLC): 2.06 µM | TGI (A549 NSCLC): 4.51 µM | GI50 (ACHN renal): 1.73 µM | TGI (ACHN renal): 3.72 µM | GI50 (CAKI-1 renal): 2.55 µM | TGI (CAKI-1 renal): 7.17 µM | GI50 (CCRF-CEM leukemia): 3.43 µM | TGI (CCRF-CEM leukemia): 27.5 µM | GI50 (COLO 205 colon): 1.81 µM | TGI (COLO 205 colon): 3.43 µM | GI50 (DU-145 prostate): 1.75 µM | TGI (DU-145 prostate): 3.18 µM | GI50 (EKVX NSCLC): 2.7 µM | TGI (EKVX NSCLC): 8.02 µM | GI50 (HCC-2998 colon): 13.4 µM | TGI (HCC-2998 colon): 27.9 µM | GI50 (HCT-116 colon): 2.01 µM | TGI (HCT-116 colon): 4.61 µM | GI50 (HCT-15 colon): 2.01 µM | TGI (HCT-15 colon): 4.68 µM | GI50 (HL-60(TB) leukemia): 2.17 µM | TGI (HL-60(TB) leukemia): 6.02 µM | GI50 (HOP-62 NSCLC): 1.76 µM | TGI (HOP-62 NSCLC): 3.35 µM | GI50 (HOP-92 NSCLC): 12 µM | TGI (HOP-92 NSCLC): 27.2 µM | GI50 (HS 578T breast): 2.01 µM | TGI (HS 578T breast): 5.37 µM | GI50 (HT29 colon): 2.42 µM | TGI (HT29 colon): 4.86 µM | GI50 (IGROV1 ovarian): 2.17 µM | TGI (IGROV1 ovarian): 4.83 µM | GI50 (K-562 leukemia): 2.92 µM | TGI (K-562 leukemia): > 100 µM | GI50 (KM12 colon): 2.88 µM | TGI (KM12 colon): 10.7 µM | GI50 (LOX IMVI melanoma): 1.82 µM | TGI (LOX IMVI melanoma): 3.75 µM | GI50 (M14 melanoma): 1.87 µM | TGI (M14 melanoma): 3.37 µM | GI50 (MALME-3M melanoma): 1.79 µM | TGI (MALME-3M melanoma): 3.45 µM | GI50 (MCF7 breast): 1.79 µM | TGI (MCF7 breast): 3.81 µM | GI50 (MDA-MB-231 breast): 5.02 µM | TGI (MDA-MB-231 breast): 29.4 µM | GI50 (MDA-MB-435): 0.296 µM | TGI (MDA-MB-435): 0.851 µM | GI50 (MOLT-4 leukemia): 3.14 µM | TGI (MOLT-4 leukemia): 28.6 µM | GI50 (NCI-H226 lung): 1.93 µM | TGI (NCI-H226 lung): 3.96 µM | GI50 (NCI-H23 lung): 1.67 µM | TGI (NCI-H23 lung): 4.1 µM | GI50 (NCI-H460 lung): 10.8 µM | TGI (NCI-H460 lung): 26.2 µM | GI50 (NCI-H522 lung): 1.48 µM | TGI (NCI-H522 lung): 2.9 µM | GI50 (NCI/ADR-RES ovarian): 2.24 µM | TGI (NCI/ADR-RES ovarian): 7.1 µM | GI50 (OVCAR-3 ovarian): 1.97 µM | TGI (OVCAR-3 ovarian): 4.46 µM | GI50 (OVCAR-4 ovarian): 1.79 µM | TGI (OVCAR-4 ovarian): 3.35 µM | GI50 (OVCAR-5 ovarian): 2.18 µM | TGI (OVCAR-5 ovarian): 4.99 µM | GI50 (OVCAR-8 ovarian): 3.15 µM | TGI (OVCAR-8 ovarian): 12.3 µM | GI50 (PC-3 prostate): 3.1 µM | TGI (PC-3 prostate): > 100 µM | GI50 (RPMI-8226 leukemia): 3.48 µM | TGI (RPMI-8226 leukemia): 17.5 µM | GI50 (RXF 393 renal): 1.73 µM | TGI (RXF 393 renal): 3.19 µM | GI50 (SF-268 CNS): 3.06 µM | TGI (SF-268 CNS): 12.2 µM | GI50 (SF-295 CNS): 1.7 µM | TGI (SF-295 CNS): 3.31 µM | GI50 (SF-539 CNS): 2.17 µM | TGI (SF-539 CNS): 5.88 µM | GI50 (SK-MEL-28 melanoma): 2.03 µM | TGI (SK-MEL-28 melanoma): 3.88 µM | GI50 (SK-MEL-5 melanoma): 0.736 µM | TGI (SK-MEL-5 melanoma): 2.02 µM | GI50 (SK-OV-3 ovarian): 7.12 µM | TGI (SK-OV-3 ovarian): 42.2 µM | GI50 (SN12C renal): 1.6 µM | TGI (SN12C renal): 3.08 µM | GI50 (SNB-19 CNS): 3.42 µM | TGI (SNB-19 CNS): 14.3 µM | GI50 (SNB-75 CNS): 1.47 µM | TGI (SNB-75 CNS): 2.87 µM | GI50 (SR leukemia): 2.56 µM | TGI (SR leukemia): 7.66 µM | GI50 (SW-620 colon): 3.09 µM | TGI (SW-620 colon): 12.1 µM | GI50 (T-47D breast): 4.57 µM | TGI (T-47D breast): 24.5 µM | GI50 (TK-10 renal): 3.68 µM | TGI (TK-10 renal): 14.5 µM | GI50 (U251 CNS): 1.82 µM | TGI (U251 CNS): 3.75 µM | GI50 (UACC-257 melanoma): 1.55 µM | TGI (UACC-257 melanoma): 3.05 µM | GI50 (UACC-62 melanoma): 1.55 µM | TGI (UACC-62 melanoma): 2.97 µM | GI50 (UO-31 renal): 1.56 µM | TGI (UO-31 renal): 4.6 µM
